Experimental data: patent US20220105152A1, “Composition for and Method of Treating Hepatic Tissue Injury” (OHIO STATE INNOVATION FOUNDATION, priority 2019, published 2022)
Like-named read-outs stand apart in the source and are kept apart here.

Assays:
[1] = system: hepatocytes of C57BL/6J mice; assay: Confocal imaging of fluorescent-labelled rhMG53 transfer from bloodstream to liver; assay type: in vivo; settings: FIG. 3
Description: We determined that MG53 transfers from the circulatory system to the liver upon occurrence of DILI. We used a mouse model of acetaminophen-induced (APAP-induced) hepatic injury to determine whether MG53 can transfer from circulation to the liver to target the injured hepatocytes.

HepG2 cells = assay: Propidium iodide staining of necrotic cell death after APAP; assay type: cell-based; settings: rhMG53 and APAP vs APAP only; FIG. 11
Description: We also determined that exogenous MG53 can reduce the extent of hepatic cell death following injury of hepatic tissue.

[2] = system: APAP-induced hepatic injury in C57BL/6J mice; settings: for therapeutic effect as determined by the survival rate: FIG. 8
RIPK3 = target: T1, RIPK3 (Homo sapiens, UniProt Q9Y572); assay: Biochemical and molecular studies of E3-ligase substrate
T1 construct: endogenous in cells; host or cells: HepG2
T1 sequence (Q9Y572 whole entry): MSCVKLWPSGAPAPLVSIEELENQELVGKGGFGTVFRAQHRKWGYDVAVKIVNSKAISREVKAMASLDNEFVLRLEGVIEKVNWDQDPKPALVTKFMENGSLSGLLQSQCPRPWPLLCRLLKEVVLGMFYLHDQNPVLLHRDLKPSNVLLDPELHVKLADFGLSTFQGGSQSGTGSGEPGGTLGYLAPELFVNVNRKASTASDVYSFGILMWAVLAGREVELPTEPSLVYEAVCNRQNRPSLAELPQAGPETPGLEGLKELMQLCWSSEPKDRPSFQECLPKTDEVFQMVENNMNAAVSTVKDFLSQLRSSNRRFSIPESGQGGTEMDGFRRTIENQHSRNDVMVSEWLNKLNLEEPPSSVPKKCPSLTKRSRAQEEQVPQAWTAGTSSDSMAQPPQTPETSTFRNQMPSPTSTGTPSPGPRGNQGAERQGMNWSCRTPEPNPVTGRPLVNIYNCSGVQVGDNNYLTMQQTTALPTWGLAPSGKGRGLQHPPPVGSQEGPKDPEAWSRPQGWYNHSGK
Description: (§1) We unexpectedly discovered that exogenous MG53 added to the circulatory system (blood) provides protection against hepatic tissue injury and provides therapeutic treatment of injured hepatic tissue. Addition of rhMG53 to APAP-treated hepatocytes improves membrane integrity and increases survival of the cells as evidenced by the reduced release of LDH and entry of fluorescent dyes. […] MG53 reduces MLKL phosphorylation and membrane translocation, thus leading to the […] of MLKL-mediated disintegration of the hepatocellular membrane. Through biochemical and molecular studies, we identified RIPK3 as an E3-ligase substrate for MG53. The systemically administered rhMG53 enters the injured hepatocytes to target polyubiquitination of RIPK3 for proteasome-dependent protein degradation. In this way, the intracellular action of MG53 adds defensive value to hepatocellular protection by reducing stress-induced activation of the RIPK3-MLKL death signaling.
Cell lysates (800 μg protein/mL supernatant) were incubated with anti-MG53 or anti-MLKL, anti-RIPK3 antibody (1 μg/mL) for 1 hour, and protein-G agarose at 4° C. for 12 hours. The immunoprecipitates were suspended in Laemmli buffer, boiled for 10 minutes, divided into 2 aliquots, electrophoresed, transferred, and subjected to immunoblotting with the anti-MLKL, anti-RIPK3, and anti-MG53 antibodies. […]

[3] = system: primary hepatocytes from wild-type and dysferlin−/− mice; assay: Hypoxia/reoxygenation (H/R) injury of primary hepatocytes; assay type: cell-based; settings: for cell viability of hepatocytes: 3 hours hypoxia, 3 hours reoxygenation, FIGS. 10A, 10B
Experimental: We also determined that the protective effect of MG53 could be extended beyond DILI to hypoxia/reoxygenation-induced (H/R-induced) liver injury. We isolated primary hepatocytes from wild-type and dysferlin−/− mice. […] With the addition of 10 μg/ml or 50 μg/ml of rhMG53, increased cell viability of hepatocytes was observed.
(§2) Primary hepatocytes were isolated from adult mice. To isolate primary murine hepatocytes, anesthetized and heparinized mice were subjected to a midline laparotomy and cannulation of the portal vein followed by liver perfusion with an EGTA-chelating perfusion buffer (190 mg EGTA, 900 mg glucose, 10 mL of 1 M HEPES, 400 mg KCl, 305 mg Na2HPO4.12H2O, 8 g NaCl, 88 mg Na2HPO4.2H2O, and 350 mg NaHCO3 into a final volume of 1 L of sterile dH2O). After perfusion with 0.4% collagenase buffer (560 mg CaCl2).2H2O, 10 mL of 1 M HEPES, 400 mg KCl, 305 mg Na2HPO4.12H2O, 8 g NaCl, 88 mg Na2HPO4. 2H2O, 350 mg NaHCO3, and 400 mg collagenase IV into a final volume of 1 L of sterile dH2O), livers were minced, and cells were dispersed in culture medium; hepatocytes and nonparenchymal cells were separated using low-speed centrifugation and 40% Percoll density gradient centrifugation.
Isolated mouse hepatocytes (2×10^5/well) were cultured on 24-well collagen-coated plates in William's Medium E (Gibco, Life Technologies, Foster City, Calif.) with 10% FBS at 37° C. with 5% CO2 for 4 hours. To assess the purity of primary hepatocytes, cells were subjected to BD Cytofix/Cytoperm and Fc Block (BD Biosciences) according to manufacturer's instructions. Hepatocytes were then stained with primary antibody against albumin (1 ug/1×10^6 cells; Novus Biologicals) and secondary AlexaFluor 594 antibody (1 ug/1×10^6 cells; Cellsignal) and analyzed by flow cytometry using a BD LSRFortessa (BD Bioscience)).

mouse hepatocytes = assay: MTT assay, APAP-injured mouse hepatocytes; assay type: cell-based; settings: rhMG53 10 or 50 μg/ml, APAP 10 mM, 24 h, FIG. 14B
Experimental: (§3) The data herein can be extrapolated to develop suitable protective doses for humans and large animals.
as §2
A hepatoma-derived HepG2 cell line was purchased from the China Cell Line Bank (Beijing China). Cells were cultured in DMEM containing 100 U/ml penicillin, 100 U/ml streptomycin, 10% FBS, and 3 mM glutamine at 37° C. with 95% air, and 5% CO2. […] Subsequently, the MTT solution was discarded, DMSO was added to each well, and absorbance was measured.

HepG2 hepatocytes = assay: MTT assay, APAP-injured HepG2; assay type: cell-based; settings: rhMG53 10 or 50 μg/ml, APAP 10 mM, 24 h, FIG. 14A
Experimental: as §3
A hepatoma-derived HepG2 cell line was purchased from the China Cell Line Bank (Beijing China). Cells were cultured in DMEM containing 100 U/ml penicillin, 100 U/ml streptomycin, 10% FBS, and 3 mM glutamine at 37° C. with 95% air, and 5% CO2. […] Then, an MTT solution (5 mg/ml) was added to the cells, followed by incubation for another 4 h. Subsequently, the MTT solution was discarded, DMSO was added to each well, and absorbance was measured.

[4] = system: CCl4 chemical-induced liver injury in C57BL/6J mice; assay: CCl4-induced liver injury in mice; assay type: in vivo; settings: CCl4 2 ml/kg, rhMG53 i.p. after injury; FIGS. 12, 13
Experimental: (§4) We also determined the efficacy of exogenous MG53 to protection against DILI caused by other chemicals. MG53 provided protective benefits when evaluated against carbon tetrachloride (CCl4) and thioacetamide (TAA). C57BL/6J mice were injected with CCl4 or TAA to cause chemical-induced liver injury and subsequently treated with MG53 via i.p. administration (Example 7). Liver tissue was biopsied and examined under microscope. The extent of necrotic tissue formation and the level of AST expression were quantified.

[5] = system: TAA chemical-induced liver injury in C57BL/6J mice; assay: TAA-induced liver injury in mice; assay type: in vivo; settings: TAA 200 mg/kg, rhMG53 i.p. after injury; FIGS. 12, 13
Experimental: as §4

[6] = system: APAP-induced liver injury in mg53−/− mice; assay: APAP-induced hepatotoxicity in mg53−/− mice; assay type: in vivo
Experimental: We determined, however, that the amount of endogenous MG53 provided by the body is on its own insufficient to overcome DILI. Pilot studies were conducted to explore the dose dependence of APAP-induced hepatotoxicity in mice. […] Therefore, the 350 mg/kg dose was used for the comparative studies with mg53−/− mice and their littermate wild-type controls.
We also determined whether exogenous MG53 administered to a subject might be sufficient to prevent or reduce the severity of DILI.
mg53−/− mice and their wild type littermates were generated, bred and genotyped as previously described (Cai, C., et al. MG53 nucleates assembly of cell membrane repair machinery. Nature cell biology 11, 56-64 (2009); Cai, C., et al. MG53 regulates membrane budding and exocytosis in muscle cells. The Journal of biological chemistry 284, 3314-3322 (2009); Cai, C., et al. Membrane repair defects in muscular dystrophy are linked to altered interaction between MG53, caveolin-3, and dysferlin. The Journal of biological chemistry 284, 15894-15902 (2009)), the entire disclosures of which are hereby incorporated by reference. To ensure data reproducibility, mouse tail samples are retained and cataloged for secondary future validation, if necessary. The mg53−/− mouse line has been previously validated.

MLKL = MLKL phosphorylation and membrane translocation; assay type: cell-based
Description: as §1, with “In this way, the intracellular action of MG53 adds defensive value to hepatocellular protection by reducing stress-induced activation of the RIPK3-MLKL death signaling.” left out
Crude extracts from dissected regions of the mouse liver were washed twice with ice-cold phosphate-buffered saline (PBS) and lysed in radio immunoprecipitation assay buffer (10 mM tris-HCl (pH 7.2), 150 mM NaCl, 1% NP-40, 0.5% SDS, and 0.5% deoxycholate), supplemented with a cocktail of protease inhibitors (Sigma) and phosphatase inhibitors (Thermo Scientific). […] Membranes were washed 3 times with TBS-T. Bound complexes were detected using the Odyssey Infrared Imaging System. Images were analyzed using the Odyssey Application Software to obtain the integrated intensities. […]

APAP-treated hepatocytes = assay: Membrane integrity of APAP-treated hepatocytes (LDH release, fluorescent dye entry); assay type: cell-based; settings: rhMG53 added to APAP-treated hepatocytes
Description: as §1
HpeG2 were seeded in 35 mm glass bottom dishes at a density of 1×10^4 cells/cm^2 and incubated over overnight. […] After rinsing with Tyrode's solution, the cells were mixed with FM1-43 dye. […] Dye entry into the cells was monitored continuously with fluorescence confocal microscope (Eclipse Ti-U, Nikon Corporation, Tokyo, Japan) immediately after mixing with the dye. […]

Substance: Alexa647-rhMG53: rhMG53 protein conjugated with an Alexa647 fluorescent probe
- fluorescent signal in hepatocytes ([1]; 1 mg/kg intravenously prior to APAP 350 mg/kg i.p., injured hepatocytes): clearly visible
- fluorescent signal in liver ([1]; 1 mg/kg intravenously, untreated mouse liver (no APAP)): no Alexa647-rhMG53 signal was visible

Substance: rhMG53: recombinant human MG53 protein (mitsugumin 53, TRIM72) obtained by E. coli fermentation
- necrotic cell death (PI staining) (HepG2 cells): significant reduction
- necrotic injury to the liver tissue ([2]; rhMG53 1 mg/kg 12 hours after APAP 300 mg/kg i.p.): reduced
- serum levels of AST ([2]; rhMG53 1 mg/kg 12 hours after APAP 300 mg/kg i.p., FIG. 9): reduction
- serum levels of AST ([2]; rhMG53 1.0 mg/kg i.p. 30 min before 350 mg/kg APAP, FIG. 6): reduced
- necrotic injuries to the mouse liver ([2]; rhMG53 1.0 mg/kg i.p. 30 min before 350 mg/kg APAP, FIG. 7A, 7B): ameliorated
- survival rate ([2]; rhMG53 1.0 mg/kg i.p. 30 minutes before 500 mg/kg APAP, FIG. 5): increased
- therapeutic effect as determined by the survival rate ([2]; rhMG53 1 mg/kg i.p. 1 h after APAP 500 mg/kg): most apparent
- therapeutic effect as determined by the survival rate ([2]; rhMG53 1 mg/kg i.p. 6 hours after APAP 500 mg/kg): still evident
- healing of liver tissue (immunofluorescent confocal imaging) ([2]; wt mice, exogenous MG53 before or after chemical-induced liver injury): improved healing
- E3-ligase substrate identified (RIPK3): RIPK3
- cell viability of hepatocytes ([3]; 10 μg/ml): increased
- cell viability of hepatocytes ([3]; 50 μg/ml): increased
- AST in the culture medium ([3]; H/R-treated wild type hepatocytes): dose-dependent effect of rhMG53 in the reduction
- protective activity against APAP-induced injury (viability) (mouse hepatocytes): dose-dependent protective activity
- protective activity against APAP-induced injury (viability) (HepG2 hepatocytes): dose-dependent protective activity
- liver tissue injury (necrotic tissue formation, AST level) [4]: protective activity
- liver tissue injury (necrotic tissue formation, AST level) [5]: protective activity
- necrosis of hepatic tissue ([6]; exogenous MG53 administered to mg53−/− mice with injured liver tissue): substantial reduction
- serum levels of AST ([6]; mg53−/− mice receiving rhMG53 treatment, APAP 350 mg/kg): reduced
- healing of liver tissue (immunofluorescent confocal imaging) ([6]; mg53−/− mice, exogenous MG53 before or after chemical-induced liver injury): improved healing
- survival of the mg53−/− mice ([6]; rhMG53 1 mg/kg i.p. prior to APAP 350 mg/kg, FIG. 4): improved
- MLKL phosphorylation and membrane translocation (MLKL): reduces
- entry of fluorescent dyes (APAP-treated hepatocytes): reduced
- release of LDH (APAP-treated hepatocytes): reduced
